Source: publication PMC9225712, “Rational design of biodegradable sulphonamide candidates treating septicaemia by synergistic dual inhibition of COX-2/PGE2 axis and DHPS enzyme” (Journal of Enzyme Inhibition and Medicinal Chemistry, 2022)
Marks after values point to notes of the source that are not given here.

Tests used:
[1] = test system: carrageenan-induced paw edoema; experiment: Carrageenan-induced paw edoema in mice
PGE2 = experiment: Estimation of rat plasma PGE2; conditions: po 10 µmol/kg b.wt., 8 h after carrageenan

| Compound | ED50 ([1]; Mus musculus, 8 h, read-out: ED50 (95% confidence level)) [µmol/kg] | Thickness of edoema 0h ([1]; mice, po 10 µmol/kg b.wt., 0 h (before carrageenan), Mean ± SEM, n = 5) [mm] | percentage anti-inflammatory activity (AI%) 2h ([1]; mice, po 10 µmol/kg b.wt., 2 h) | Thickness of edoema 2h ([1]; mice, po 10 µmol/kg b.wt., 2 h after carrageenan, Mean ± SEM, n = 5) | percentage anti-inflammatory activity (AI%) 4h ([1]; mice, po 10 µmol/kg b.wt., 4 h) | Thickness of edoema 4h ([1]; mice, po 10 µmol/kg b.wt., 4 h after carrageenan, Mean ± SEM, n = 5) | percentage anti-inflammatory activity (AI%) 6h ([1]; mice, po 10 µmol/kg b.wt., 6 h) | Thickness of edoema 6h ([1]; mice, po 10 µmol/kg b.wt., 6 h after carrageenan, Mean ± SEM, n = 5) | percentage anti-inflammatory activity (AI%) 8h ([1]; mice, po 10 µmol/kg b.wt., 8 h) | percentage anti-inflammatory activity (AI%) 8h ([1]; mice, po 10 µmol/kg b.wt., 8 h, listed as celecoxib) [%] | Thickness of edoema 8h ([1]; mice, po 10 µmol/kg b.wt., 8 h after carrageenan, Mean ± SEM, n = 5) | % inhibition of PGE2-production (PGE2; rat serum) [%] | PGE2 serum conc. (PGE2; rat, Mean ± SEM, n = 5) [pg/mL] | ED50 (E. coli C11; Escherichia coli, C11, in Mus musculus, read-out: ED50 against E.coli infection) [µmol/kg] | ED50, protective effect against bacteremic infection, Escherichia coli (E. coli C11; mice, challenge dose 7.1x10^3 CFU/mouse ip, intragastric once a day for 7 days, survival) [µmol/kg/day] | ED50 (S. aureus Smith; Staphylococcus aureus, in Mus musculus, read-out: ED50 against S. aureus infection) [µmol/kg] | ED50, protective effect against bacteremic infection, Staphylococcus aureus (S. aureus Smith; mice, challenge dose 9.5x10^6 CFU/mouse ip, intragastric once a day for 7 days, survival) [µmol/kg/day] |
| --- | --- | --- | --- | --- | --- | --- | --- | --- | --- | --- | --- | --- | --- | --- | --- | --- | --- |
| Cc1ccc(-c2cc(C(F)(F)F)nn2-c2ccc(S(N)(=O)=O)cc2)cc1 [Celecoxib, reference compound] | 13.1 | 0.62 ± 0.01 | (6.32%)^d | 0.89 ± 0.01^c mm | (45.14%) | 0.79 ± 0.01^c mm | (64.39%) | 0.73 ± 0.03^c mm | (70.87%) | 70.87 | 0.67 ± 0.02^c mm | 71.18 | 380.636 ± 5.53 | – | – | – | – |
| O=C(O)c1cc(/N=N/c2ccc(S(=O)(=O)Nc3ccccn3)cc2)ccc1O [Sulfasalazine, reference compound] | – | – | – | – | – | – | – | – | – | – | – | – | – | 419 | 419.2 | 314 | 313.7 |
